Measurements taken from patent US6043373A, “Heterocycle-fused thiazole derivatives” (Yungjin Pharmaceutical Co., Ltd., priority 1995, dated 2000).

How the values were obtained:
[1] = target: T1, H^+ /K^+ ATPase (Oryctolagus cuniculus, UniProt P27112); assay: Inhibition of H^+ /K^+ ATPase (vesicles from gastric mucose membrane of rabbit); assay type: biochemical; details: pH 7.4, 37° C., 30 minutes preincubation, 15 minutes incubation; read-out: Enzyme Inhibition (IC50)
T1 construct: from tissue; host or cells: rabbit gastric mucosa, membrane vesicles (differential and Ficoll density gradient centrifugation)
Description: Inhibition of H^+ /K^+ ATPase, a proton carrying enzyme, was measured by following the procedure of Saccomani et al. [Biochim. Biophy. Acta., 465, 311-330 (1977)]. Thus, a homogenate of the gastric mucose membrane of rabbit was used to prepare vesicles containing H^+ /K^+ ATPase by employing differential centrifugation and discontinuous density gradient centrifugation in Ficoll. The vesicles containing the enzyme were preincubated in a solution (0.5 ml) containing 1×10^-4 M, 1×10^-5 M, 1×10^-6 M, or 1×10^-7 M of the inventive compound (Example 21) and 5 mM of imidazole buffer (pH 7.4) at a temperature of about 37° C. for about 30 minutes. omeprazole was used as a control. A solution containing 2 mM of magnesium chloride, 40 mM of imidazole buffer (pH 7.4), 10 mM of potassium chloride and 10 mM of ATP was added to the mixture. The resulting mixture was incubated at 37° C. for 15 minutes and the reaction was terminated by adding 1 ml of ice-cold 22% solution of trichloroacetic acid. Enzyme activity was calculated by measuring the separated inorganic phosphate by following the method of Fiske and Subbarow [J. Biol. Chem., 66, 375-440 (1925)].

[2] = test system: Gastric Secretion; assay: Inhibition of gastric secretion (Shay pylorus ligation); assay type: in vivo, male Sprague-Dawley rats; details: rat, intraduodenal
Description: Inhibition of gastric secretion was measured by following the procedure of Shay ligation (Gastroenterology, 1954, 26, 903). Thus, male Sprague-Dawleyrats weighing 180-200 g were starved for 24 hours and their pylorus were ligated. Then, the inventive compounds (Examples 1, 13 and 17) or omeprazole as a positive control was administered into duodenum. Four hours later, the stomach was removed, and the acidity and amount of gastric juice were measured. By comparing the measured values with the acidity and amount of the gastric juice of the stomach of the reference group to which no test compound was administered, the inhibition of gastric secretion was calculated.

[3] = test system: Indomethacin-Induced Lesions; assay: Inhibition of Indomethacin-Induced Lesions; assay type: in vivo, male Sprague-Dawley rats; details: rat, oral, before 35 mg/kg indomethacin s.c.; read-out: Anti-ulcer activity (ED50), Indomethacin
Description: Inhibition activities of the inventive compounds on the indome][…]-induced lesions was measured by using male Sprague-Dawley rats. Thus, rats were starved for 48 hours and prohibited from being supplied with water for 2 hours, and 35 mg/kg of indomethacin (Sigma Co.) as a causative of gastric lesions was subcutaneously administered. Before Indomethacine treatment, the inventive compounds (Examples 1 and 17) or omeprazole as a positive control was orally administered, and the inhibitions of lesions by the action of the test compounds were observed.

[4] = test system: Stress-Induced Ulcer; assay: Inhibition of Stress-Induced Ulcer (water immersion); assay type: in vivo, male Sprague-Dawley rats; details: rat, oral, 30 minutes prior to immersion in water; read-out: Anti-ulcer activity (ED50), Stress
Description: Inhibition activity of the inventive compound on the stress-induced ulcer was evaluated by using male Sprague-Dawley rats. Thus, rats were starved for 24 hours prior to carrying out the experiment. Stress is an important factor for causing gastric lesions, and was applied to rats by immersing them in water. Thirty minutes prior to immersing rats into water, the inventive compounds (Examples 1 and 17) or omeprazole as a positive control was orally administered, and the inhibitions of ulcer by the action of the test compounds were observed.

[5] = test system: Acetic Acid-Induced Ulcer; assay: Inhibition of Acetic Acid-Induced Ulcer (healing); assay type: in vivo, male Sprague-Dawley rats; details: rat, oral, 30 mg/kg, for 10 days
Description: Inhibition activity of the inventive compound on-the acetic acid-induced ulcer was evaluated by using male Sprague-Dawley rats. Thus, rats were starved for 5 hours prior to carrying out the experiment.
20 Microliter of 30% acetic acid was injected into the submucosal layer of the stomach using a microsyringe to induce a circular ulcer on the stomach. Various doses of the inventive compounds (Examples 1 and 17) or omeprazole as a positive control were orally administered for 10 days, and the healing of ulcer by the action of the test compounds were observed. The percentages of the healing of the ulcer were calculated by comparing them with that of reference group.

[6] = test system: Ethanol-Induced Lesions; assay: Inhibition of Ethanol-Induced Lesions; assay type: in vivo, male Sprague-Dawley rats; details: rat, oral, 30 minutes before absolute ethanol (5 ml/kg); read-out: Anti-ulcer activity (ED50), Ethanol
Description: Inhibition activity of the inventive compound on the ethanol-induced ulcer was measured by using male sprague-Dawley rats weighing 180-200 g. Thus, rats were starved for 24 hours, and the inventive compound (Examples 1 and 17) or omeprazole as a positive control was orally administered. Thirty minutes later, absolute ethanol (5 ml/kg was orally administered. 1.5 hours later, the stomach was removed, and the degree of the wound of the stomach was measured. By comparing the measured values with the degree of the lesion of the stomach the reference group to which no test compound was administered, the effective dose (ED50) of the test compounds which inhibit the lesion by 50% were calculated and are shown in Table 3.

[7] = test system: Mepirizole-Induced Ulcer; assay: Inhibition of Mepirizole-Induced Ulcer (duodenum); assay type: in vivo, male Sprague-Dawley rats; details: rat, oral, 30 minutes before mepirizole (250 mg/kg); read-out: Anti-ulcer activity (ED50), Mepirizole
Description: Inhibition activity of the inventive compounds on the mepirizole-induced ulcers was measured by using male Spraque-Dawley rats weighing 200-230 g. Thus, rats were not starved, and the inventive compounds (Examples 1 and 17) or omeprazole as a positive control was orally administered. Thirty minutes later, mepirizole suspended in 1% CMC (250 mg/kg) was orally administered. […], the duodena were removed. The degree of the ulcer thereof was measured. By comparing the measured values with the degree of the ulcer of the duodena of the reference group to which no test compound was administered, the effective deses (ED50) of the test compounds which inhibit the ulcer by 50% were calculated and are shown in Table 3.

T1 sequence (P27112 2-1035 limits assumed): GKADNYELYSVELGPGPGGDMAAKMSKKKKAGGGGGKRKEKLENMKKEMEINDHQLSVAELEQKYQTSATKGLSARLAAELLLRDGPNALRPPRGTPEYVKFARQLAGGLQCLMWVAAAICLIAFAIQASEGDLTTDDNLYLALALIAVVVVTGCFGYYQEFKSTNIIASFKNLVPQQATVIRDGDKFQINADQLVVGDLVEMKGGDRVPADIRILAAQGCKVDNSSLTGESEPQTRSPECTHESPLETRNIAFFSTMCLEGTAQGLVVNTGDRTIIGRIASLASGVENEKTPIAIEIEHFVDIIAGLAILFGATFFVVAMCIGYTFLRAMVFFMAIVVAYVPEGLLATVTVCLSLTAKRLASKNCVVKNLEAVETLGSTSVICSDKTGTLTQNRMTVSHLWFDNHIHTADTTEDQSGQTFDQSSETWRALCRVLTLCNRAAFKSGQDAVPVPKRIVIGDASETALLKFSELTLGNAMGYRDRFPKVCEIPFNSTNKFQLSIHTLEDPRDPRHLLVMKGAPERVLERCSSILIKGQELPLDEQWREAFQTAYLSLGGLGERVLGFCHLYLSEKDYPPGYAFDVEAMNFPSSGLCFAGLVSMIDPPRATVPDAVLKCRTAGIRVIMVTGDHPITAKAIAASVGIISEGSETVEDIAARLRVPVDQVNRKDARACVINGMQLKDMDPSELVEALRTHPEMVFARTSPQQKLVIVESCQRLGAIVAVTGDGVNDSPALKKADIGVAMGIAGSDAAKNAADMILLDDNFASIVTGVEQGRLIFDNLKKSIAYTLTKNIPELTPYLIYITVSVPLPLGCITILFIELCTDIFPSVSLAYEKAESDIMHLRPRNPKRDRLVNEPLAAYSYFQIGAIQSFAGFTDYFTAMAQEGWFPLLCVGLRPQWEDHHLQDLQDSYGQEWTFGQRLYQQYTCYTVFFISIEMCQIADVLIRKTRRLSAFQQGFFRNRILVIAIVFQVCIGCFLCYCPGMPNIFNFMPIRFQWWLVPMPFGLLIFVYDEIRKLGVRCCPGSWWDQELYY
T1 sequence (P18597 whole entry partner): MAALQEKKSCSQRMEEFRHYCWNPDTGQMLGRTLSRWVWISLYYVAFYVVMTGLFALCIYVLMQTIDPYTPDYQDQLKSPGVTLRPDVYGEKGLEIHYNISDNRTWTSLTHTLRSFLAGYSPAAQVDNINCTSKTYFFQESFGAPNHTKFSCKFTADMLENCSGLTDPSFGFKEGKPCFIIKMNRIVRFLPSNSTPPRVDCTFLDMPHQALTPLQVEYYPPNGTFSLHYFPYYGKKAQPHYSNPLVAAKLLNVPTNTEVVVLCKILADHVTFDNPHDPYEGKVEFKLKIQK

Compound	IC50 [1]	Gastric juice Secretion Inhibition (percent) ([2]; 25 mg/kg, 4 hours)	ED50 [3]	ED50 [4]	Anti-ulcer activity, Acetic acid: Percentage of healing [5]	ED50 ([2]; 4 hours after pylorus ligation, read-out: Gastric juice Secretion Inhibition (ED50))	ED50 [6]	ED50 [7]
CNc1nc2c(s1)CCc1c-2sc2nc(-c3ccccc3)cn12 [Example 2]	21.6 µM							
Br.Br.Nc1nc2c(s1)CCc1c-2sc2nc3ccccc3n12 [Example 13, 2-amino-4,5-dihydrobenzimidazo[2,1-b]thiazolo[5,4-g]benzothiazole dihydrobromide]	200 µM	34.0%						
Nc1nc2c(s1)CCc1nc3ccccn3c1-2 [Example 17, 2-amino-4,5-dihydropyrido[1,2-a]thiazolo [5,4-g]benzimidazole]	49 µM		4.68 mg/kg	17.6 mg/kg	31.59%	15.4 mg/kg	2.91 mg/kg	18.7 mg/kg
NC(N)=Nc1nc2c(s1)-c1nc(N)sc1CC2 [Example 18]	100 µM							
COc1ccc2[nH]c([S+]([O-])Cc3ncc(C)c(OC)c3C)nc2c1 (stereo not shown) [Omeprazole, reference compound]			1.2 mg/kg	4.4 mg/kg	27.1%		17.1 mg/kg	2.8 mg/kg
